Data on ten compounds can be found in article PMC6781469 (Journal of Enzyme Inhibition and Medicinal Chemistry, 2019).

Structures are written as SMILES. pIC50: −log10 of the molar value. Read-outs that look alike come from different tables or passages of the source.

The target in assay [1] is RAF1 (Homo sapiens, UniProt P04049). The assay can be described thus: kinase panel screen, RAF1. Conditions: read-out: % Inhibition RAF1.
Assay [2] has as its target T1, FLT3 (ITD) (Homo sapiens, UniProt P36888, ITD).
T1 sequence (P36888 564-993): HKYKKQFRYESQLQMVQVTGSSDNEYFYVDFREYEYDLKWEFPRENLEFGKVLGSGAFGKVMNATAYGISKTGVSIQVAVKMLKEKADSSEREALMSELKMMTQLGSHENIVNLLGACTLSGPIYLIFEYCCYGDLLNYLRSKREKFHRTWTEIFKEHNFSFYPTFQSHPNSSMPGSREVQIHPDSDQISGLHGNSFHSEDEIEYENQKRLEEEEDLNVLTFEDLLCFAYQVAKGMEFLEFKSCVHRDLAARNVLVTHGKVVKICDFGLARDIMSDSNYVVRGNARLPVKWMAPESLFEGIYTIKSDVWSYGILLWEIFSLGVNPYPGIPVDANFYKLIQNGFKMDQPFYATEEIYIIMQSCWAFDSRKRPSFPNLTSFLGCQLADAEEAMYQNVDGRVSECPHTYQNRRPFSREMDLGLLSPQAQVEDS
The assay can be described thus: kinase panel screen, FLT3 (ITD). Conditions: read-out: % Inhibition FLT3 (ITD).

In assay [3] the target is FMS (Homo sapiens, UniProt P07333). As to the kind of experiment: Reaction Biology Kinase HotSpot kinase assay, FMS.
Sequence of FMS (P07333 20-972): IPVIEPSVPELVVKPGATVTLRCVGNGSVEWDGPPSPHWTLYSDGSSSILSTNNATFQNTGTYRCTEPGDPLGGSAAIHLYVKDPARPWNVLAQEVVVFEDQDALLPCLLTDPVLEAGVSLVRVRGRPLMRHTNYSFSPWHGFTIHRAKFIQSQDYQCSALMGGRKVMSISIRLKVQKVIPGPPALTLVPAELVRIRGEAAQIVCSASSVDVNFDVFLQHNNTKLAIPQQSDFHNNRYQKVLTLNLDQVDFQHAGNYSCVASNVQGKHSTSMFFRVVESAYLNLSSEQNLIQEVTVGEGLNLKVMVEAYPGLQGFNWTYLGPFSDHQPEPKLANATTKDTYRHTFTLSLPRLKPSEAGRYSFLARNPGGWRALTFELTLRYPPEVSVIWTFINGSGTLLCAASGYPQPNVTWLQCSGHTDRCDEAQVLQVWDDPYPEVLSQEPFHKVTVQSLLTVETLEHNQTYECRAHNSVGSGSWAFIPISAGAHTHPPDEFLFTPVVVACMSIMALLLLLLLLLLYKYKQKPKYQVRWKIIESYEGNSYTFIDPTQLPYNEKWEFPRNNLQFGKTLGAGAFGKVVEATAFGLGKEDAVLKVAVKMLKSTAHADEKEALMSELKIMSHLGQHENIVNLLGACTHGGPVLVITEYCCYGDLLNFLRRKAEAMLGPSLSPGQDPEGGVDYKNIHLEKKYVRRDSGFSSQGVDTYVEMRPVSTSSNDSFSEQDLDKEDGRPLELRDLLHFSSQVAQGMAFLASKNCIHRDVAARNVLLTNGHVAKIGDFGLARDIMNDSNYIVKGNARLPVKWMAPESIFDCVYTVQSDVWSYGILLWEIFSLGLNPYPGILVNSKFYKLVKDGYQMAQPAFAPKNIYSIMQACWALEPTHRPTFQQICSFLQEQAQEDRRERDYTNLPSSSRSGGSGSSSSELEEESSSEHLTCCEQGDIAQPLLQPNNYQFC
The target in assay [4] is T2, FLT3(h) (Homo sapiens, UniProt P36888).
T2 sequence (P36888 27-993): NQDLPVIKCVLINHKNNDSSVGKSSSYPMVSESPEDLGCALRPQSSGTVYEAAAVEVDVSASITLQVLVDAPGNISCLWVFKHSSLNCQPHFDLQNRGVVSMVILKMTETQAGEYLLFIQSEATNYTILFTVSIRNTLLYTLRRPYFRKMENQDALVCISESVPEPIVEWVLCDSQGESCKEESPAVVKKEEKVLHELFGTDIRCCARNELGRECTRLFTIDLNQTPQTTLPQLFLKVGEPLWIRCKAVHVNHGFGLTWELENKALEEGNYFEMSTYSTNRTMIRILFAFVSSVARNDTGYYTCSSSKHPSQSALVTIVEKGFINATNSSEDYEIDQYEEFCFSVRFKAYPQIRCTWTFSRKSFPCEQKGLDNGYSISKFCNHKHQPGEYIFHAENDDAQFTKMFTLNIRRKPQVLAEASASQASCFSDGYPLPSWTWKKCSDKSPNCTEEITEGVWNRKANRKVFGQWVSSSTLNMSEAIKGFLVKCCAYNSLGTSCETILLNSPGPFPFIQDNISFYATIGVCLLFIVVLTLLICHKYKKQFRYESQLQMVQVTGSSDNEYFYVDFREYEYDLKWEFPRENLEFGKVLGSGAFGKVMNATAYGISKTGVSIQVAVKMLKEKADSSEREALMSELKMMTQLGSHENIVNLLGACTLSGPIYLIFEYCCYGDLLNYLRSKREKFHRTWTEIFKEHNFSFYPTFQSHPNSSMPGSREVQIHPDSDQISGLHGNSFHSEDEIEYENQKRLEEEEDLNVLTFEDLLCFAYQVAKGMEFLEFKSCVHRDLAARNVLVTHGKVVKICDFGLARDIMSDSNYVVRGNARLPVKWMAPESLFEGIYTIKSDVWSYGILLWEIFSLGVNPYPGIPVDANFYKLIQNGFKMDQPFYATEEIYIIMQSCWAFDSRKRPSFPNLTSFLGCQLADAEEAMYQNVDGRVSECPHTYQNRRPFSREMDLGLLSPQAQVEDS
The assay can be described thus: Reaction Biology Kinase HotSpot radiometric kinase assay, FLT3. Conditions: for times more potent than 5f against FLT3: ratio of FLT3 IC50 versus 5f.

Assay [5] deals with FLT-3. Further details: method as in earlier work. Conditions: competitive-binding assays in vitro; read-out: IC50 against FLT-3; cited from earlier work.
The test system of assay [6] is KIT. The arrangement: method as in earlier work. The following applies: competitive-binding assays in vitro; read-out: IC50 against KIT; cited from earlier work.

Sequence of RAF1 (P04049 whole entry): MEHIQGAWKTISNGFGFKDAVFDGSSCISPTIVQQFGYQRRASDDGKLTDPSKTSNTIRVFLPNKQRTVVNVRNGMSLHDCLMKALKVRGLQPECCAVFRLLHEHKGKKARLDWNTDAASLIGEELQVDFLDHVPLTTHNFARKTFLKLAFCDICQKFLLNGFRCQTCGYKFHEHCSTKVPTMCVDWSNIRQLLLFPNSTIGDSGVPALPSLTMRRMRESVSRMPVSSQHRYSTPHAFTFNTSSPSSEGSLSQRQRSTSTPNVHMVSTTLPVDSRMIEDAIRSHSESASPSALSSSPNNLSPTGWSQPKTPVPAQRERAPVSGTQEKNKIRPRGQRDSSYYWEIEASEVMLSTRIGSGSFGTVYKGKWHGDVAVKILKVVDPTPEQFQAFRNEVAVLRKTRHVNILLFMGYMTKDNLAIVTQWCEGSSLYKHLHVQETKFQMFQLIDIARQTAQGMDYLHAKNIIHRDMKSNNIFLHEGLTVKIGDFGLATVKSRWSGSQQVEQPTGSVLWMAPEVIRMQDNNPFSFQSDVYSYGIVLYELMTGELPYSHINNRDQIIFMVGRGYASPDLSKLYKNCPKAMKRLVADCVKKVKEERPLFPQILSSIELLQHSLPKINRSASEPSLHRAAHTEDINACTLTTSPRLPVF

By inhibition is commonly meant the relative decrease from the control value, in per cent. In general, pIC50 refers to the negative decadic logarithm of the IC50, by convention in mol/L. For the compound `Cc1oncc1C(=O)Nc1ccc2nc(-c3cc(N4CCN(C)CC4)cc(C(F)(F)F)c3)[nH]c2c1` [5a, 5-methyl-N-(2-(3-(4-methylpiperazin-1-yl)-5-(trifluoromethyl)phenyl)-1H-benzo[d]imidazole-5-yl) isoxazole-4-carboxamide], the inhibition at 10 µM in assay [1] amounted to 8.47%; in assay [2], 88.5%; in assay [3] (read-out: % Inhibition FMS), 0%; in assay [4] (read-out: % Inhibition FLT3), 90%. In assay [4], this compound had a pIC50 of 6.31.

One may read the IC50 as the concentration that gives 50% inhibition. In the case of `Cc1oncc1C(=O)Nc1ccc2[nH]c(-c3cc(N4CCOCC4)cc(C(F)(F)F)c3)nc2c1` [5b], the IC50 in assay [4] (read-out: IC50 (µM) FLT3, enzymatic activity, Table 1, NA not defined) amounted to 7.94 µM.

Consider `Cc1oncc1C(=O)Nc1ccc2[nH]c(-c3ccc(N4CCOCC4)c(C(F)(F)F)c3)nc2c1` [5c], for which the pIC50 in assay [4] is about 5.00.

On to `Cc1cn(-c2cc(-c3nc4cc(NC(=O)c5cnoc5C)ccc4[nH]3)cc(C(F)(F)F)c2)cn1` [5d], for which, in assay [4], the pIC50 is 5.63 and the “times more potent than 5f against FLT3” value is on record as 6–8 times.

As for `Cc1oncc1C(=O)Nc1ccc2[nH]c(-c3cc(-n4cncc4C)cc(C(F)(F)F)c3)nc2c1` [5e], in assay [3], the pIC50 was 5.00. Further, in assay [4], the pIC50 is 5.79 and the “times more potent than 5f against FLT3” value is on record as 6–8 times.

In the case of `Cc1oncc1C(=O)Nc1ccc2[nH]c(-c3cc(-n4ccnc4C)cc(C(F)(F)F)c3)nc2c1` [5f], the pIC50 in assay [4] was 4.87.

The compound `Cc1oncc1C(=O)Nc1cccc2[nH]c(-c3cc(N4CCN(C)CC4)cc(C(F)(F)F)c3)nc12` [6a] gave a pIC50 in assay [4] of 5.65.

In assay [4], `Cc1oncc1C(=O)Nc1cccc2[nH]c(-c3ccc(N4CCOCC4)c(C(F)(F)F)c3)nc12` [6b] had a pIC50 of 4.86.

`Cc1cn(-c2cc(-c3nc4c(NC(=O)c5cnoc5C)cccc4[nH]3)cc(C(F)(F)F)c2)cn1` [6c]: the pIC50 in assay [4] is 5.21.

`CC(C)(C)c1cc(NC(=O)Nc2ccc(-c3ccc(N)nc3)cc2)no1` [compound 1]: the pIC50 in assay [5] and in assay [6] was 9.00 throughout.
